Data from publication PMC5584945, “Evaluation of robenidine analog NCL195 as a novel broad-spectrum antibacterial agent” (PLoS ONE, 2017).
Values after ≈ are worked out from the molar mass of the structure shown. Where two headings read alike, the source gives them in different places.

Experiments:
[1] = tested on: vancomycin-resistant enterococci (VRE); assay: MIC, broth micro-dilution (CLSI); format: cell-based, enterococci (porcine isolates); settings: S3 Table isolates
[2] = tested on: Enterococcus faecalis ATCC 29212; assay: MIC, broth micro-dilution (CLSI), control strain; format: cell-based
Procedure: MICs for NCL812 and its analogs (serial two-fold dilutions commencing at 128 μg/ml) were determined (in duplicate) in round bottom 96-well microtitre trays (Sarstedt 82.1582.001), using the broth micro-dilution method recommended by the Clinical and Laboratory Standards Institute (CLSI). […] MIC50, MIC90 and MIC range for NCL812, NCL195 and NCL219 were calculated against each S. pneumoniae, S. aureus or VRE isolate. To assess the potential activity of NCL195 against Gram-negative bacteria, MICs against Acinetobacter spp, E. coli, K. pneumoniae, P. aeruginosa, Proteus spp and Neisseria meningitidis were performed in the presence or absence of 0.08 mM-20 mM EDTA in a standard checkerboard assay.

S. aureus = assay: MIC, broth micro-dilution (CLSI); format: cell-based, Staphylococcus aureus; settings: for MIC / MIC50 / MIC90: Staphylococcus aureus; for MIC50 / MIC90: S2 Table isolates
MDBK = assay: In vitro cytotoxicity, WST-1; format: cell-based, bovine; settings: Bos taurus, 24 h exposure, read-out: IC50 values ± SEM
Description: In order to ensure minimal off target mammalian cell cytotoxicity, we assayed NCL812, NCL195 and NCL219 for in vitro cytotoxicity using a panel of adherent mammalian cell lines: Caco-2 (human colorectal adenocarcinoma cell line), HEL 299 (non-cancerous human lung fibroblast cell line), Hep G2 (human hepatocellular carcinoma cell line), MDBK (normal bovine kidney cell line) and MCF7 (human mammary gland adenocarcinoma cell line). Cell lines were maintained in Dulbecco’s Modified Eagle’s Medium (DMEM; […] After 24 h incubation, media was removed, washed once with medium without antibiotics and fresh medium supplemented with 10% (vol/vol) FBS was added. […] Following exposure for 24 h, WST-1 reagent was added to each well at a final concentration of 10%. […] The IC50 value for each compound against each cell line was determined via non-linear regression (three parameters) using GraphPad Prism v6 software. The robustness of assays was confirmed with selected cell lines (Hep G2 and MDBK) seeded onto a 96–well Microwell Nunclon Delta Surface plate (Thermo Scientific Nunc; Cat No: 136101) at 5 × 10^4 cells per well.

S. aureus ATCC49775 = assay: Membrane potential, DiOC2(3) fluorescence; format: cell-based, Staphylococcus aureus; settings: 16 μg/ml, pre-incubated 5 min; versus untreated and ampicillin
Procedure: To further examine the mechanism underlying the perturbation of the cell membrane of S. pneumoniae or S. aureus by the NCL compounds, the membrane potential of the cells was measured by fluorescence spectrometry using (DiOC2(3), essentially as described previously. Briefly, […] cells from an overnight HBA plate were grown in Todd-Hewitt broth supplemented with 1% yeast extract (THY) at 37°C, 5% CO2 until A600 nm = 0.5. […] The cuvette was then placed in a LS 55 Fluorescence Spectrometer (PerkinElmer) set at Ex. 488 nm/Em. 620 nm, with excitation and emission slit widths at 5 nm and 7 nm, respectively). […] All assays were performed at least twice.

Hep G2 = assay: Real-time cell viability, RealTime-Glo MT; format: cell-based, human; settings: 2 or 8 μg/ml, up to 20 h post-treatment
[3] = LogD by gradient HPLC chromatographic method; format: physicochemical; settings: pH 7.4

## C/C(=N\NC(=N)N/N=C(\C)c1ccc(C(C)(C)C)cc1)c1ccc(C(C)(C)C)cc1 [NCL219, (E)-N'-((E)-1-(4-(tert-butyl)phenyl)ethylidene)-2-(1-(4-(tert-butyl)phenyl)ethylidene)hydrazine-1-carboximidhydrazide]
[1]; 10% FBS
  MIC range: 8 to 16 µg/mL
[1]; absence of FBS
  MIC range: 1 to 2 µg/mL
[2]; ATCC29212, 10% FBS
  MIC: 8 µg/mL
[2]; ATCC29212, absence of FBS
  MIC: 2 µg/mL
S. aureus; 10% FBS versus no FBS
  Fold increase of MIC range in the presence of 10% FBS: remained essentially the same
S. aureus; ATCC 12600 / MSSA, ATCC12600 [Xen29] (MSSA), 10% FBS
  MIC: 4 µg/mL (≈ 9.86 µM)
S. aureus; ATCC 12600 / MSSA, ATCC12600 [Xen29] (MSSA), absence of FBS
  MIC: 32 µg/mL (≈ 78.9 µM)
S. aureus; ATCC 29213 / MSSA, ATCC29213 MSSA (ST5), 10% FBS, read-out: MIC
  MIC: 8 µg/mL (≈ 19.7 µM)
S. aureus; ATCC 29213 / MSSA, ATCC29213 MSSA (ST5), absence of FBS, read-out: MIC
  MIC: 16 µg/mL (≈ 39.4 µM)
S. aureus; ATCC 49775 / MSSA, ATCC 49775 (MSSA), 10% FBS, read-out: MIC
  MIC: 4 µg/mL (≈ 9.86 µM)
S. aureus; ATCC 49775 / MSSA, ATCC 49775 (MSSA), absence of FBS, read-out: MIC
  MIC: 32 µg/mL (≈ 78.9 µM)
S. aureus; IRISH 1 – HA-EMRSA (ST8), 10% FBS, read-out: MIC
  MIC: > 64 µg/mL
S. aureus; IRISH 1 – HA-EMRSA (ST8), absence of FBS, read-out: MIC
  MIC: > 64 µg/mL
S. aureus; IRISH 2 – HA-EMRSA (ST8), 10% FBS, read-out: MIC
  MIC: 8 µg/mL (≈ 19.7 µM)
S. aureus; IRISH 2 – HA-EMRSA (ST8), absence of FBS, read-out: MIC
  MIC: 32 µg/mL (≈ 78.9 µM)
S. aureus; MRSA / USA300, USA 300 - MRSA (ST8), 10% FBS, read-out: MIC
  MIC: 4 µg/mL (≈ 9.86 µM)
S. aureus; MRSA / USA300, USA 300 - MRSA (ST8), absence of FBS, read-out: MIC
  MIC: > 64 µg/mL
S. aureus; MRSA, AUS2-MRSA (ST239), 10% FBS, read-out: MIC
  MIC: 8 µg/mL (≈ 19.7 µM)
S. aureus; MRSA, AUS2-MRSA (ST239), absence of FBS, read-out: MIC
  MIC: > 64 µg/mL
S. aureus; MRSA, AUS3-MRSA (ST239), 10% FBS, read-out: MIC
  MIC: 8 µg/mL (≈ 19.7 µM)
S. aureus; MRSA, AUS3-MRSA (ST239), absence of FBS, read-out: MIC
  MIC: 64 µg/mL (≈ 158 µM)
S. aureus; MRSA, BENGAL BAY PVL+ – CA-MRSA (ST772), absence of FBS
  MIC: 16 µg/mL (≈ 39.4 µM)
S. aureus; MRSA, Classic–HA-MRSA (ST250), 10% FBS, read-out: MIC
  MIC: 32 µg/mL (≈ 78.9 µM)
S. aureus; MRSA, Classic–HA-MRSA (ST250), absence of FBS, read-out: MIC
  MIC: 32 µg/mL (≈ 78.9 µM)
S. aureus; MRSA, NY JAPAN – HA MRSA (ST5), 10% FBS, read-out: MIC
  MIC: 4 µg/mL (≈ 9.86 µM)
S. aureus; MRSA, NY JAPAN – HA MRSA (ST5), absence of FBS, read-out: MIC
  MIC: > 64 µg/mL
S. aureus; MRSA, ST398–CA-MRSA-V (ST398), 10% FBS, read-out: MIC
  MIC: > 64 µg/mL
S. aureus; MRSA, ST398–CA-MRSA-V (ST398), absence of FBS, read-out: MIC
  MIC: > 64 µg/mL
S. aureus; MRSA, WA2–CA-MRSA (ST78), absence of FBS, read-out: MIC
  MIC: > 64 µg/mL
S. aureus; MRSA, WA3–CA-MRSA (ST5), absence of FBS, read-out: MIC
  MIC: > 64 µg/mL
S. aureus; MRSA, WA84–CA-MRSA (ST45), 10% FBS, read-out: MIC
  MIC: 8 µg/mL (≈ 19.7 µM)
S. aureus; MRSA, WA84–CA-MRSA (ST45), absence of FBS, read-out: MIC
  MIC: > 64 µg/mL
S. aureus; 10% FBS
  MIC50: 8 µg/mL (≈ 19.7 µM)
  MIC90: > 64 µg/mL
S. aureus; absence of FBS
  MIC50: 64 µg/mL (≈ 158 µM)
  MIC90: > 64 µg/mL
S. aureus; TAIWAN PVL+ – CA-cMRSA (ST59), 10% FBS, read-out: MIC
  MIC: 32 µg/mL (≈ 78.9 µM)
S. aureus; TAIWAN PVL+ – CA-cMRSA (ST59), absence of FBS, read-out: MIC
  MIC: > 64 µg/mL
S. aureus; UK 15 PVL+ – HA-EMRSA (ST22), 10% FBS, read-out: MIC
  MIC: 4 µg/mL (≈ 9.86 µM)
S. aureus; UK 15 PVL+ – HA-EMRSA (ST22), absence of FBS, read-out: MIC
  MIC: 32 µg/mL (≈ 78.9 µM)
S. aureus; UK 15 – HA-EMRSA (ST22), 10% FBS, read-out: MIC
  MIC: 8 µg/mL (≈ 19.7 µM)
S. aureus; UK 15 – HA-EMRSA (ST22), absence of FBS, read-out: MIC
  MIC: 64 µg/mL (≈ 158 µM)
S. aureus; UK 16 – HA- EMRSA (ST36), 10% FBS, read-out: MIC
  MIC: 4 µg/mL (≈ 9.86 µM)
S. aureus; UK 16 – HA- EMRSA (ST36), absence of FBS, read-out: MIC
  MIC: 32 µg/mL (≈ 78.9 µM)
S. aureus; UK 17 – HA-EMRSA (ST247), 10% FBS, read-out: MIC
  MIC: 16 µg/mL (≈ 39.4 µM)
S. aureus; UK 17 – HA-EMRSA (ST247), absence of FBS, read-out: MIC
  MIC: 64 µg/mL (≈ 158 µM)
MDBK
  IC50: 16 ± 0.2 µg/mL (≈ 39.4 µM)
S. aureus ATCC49775
  Effect on generated membrane potential: large reduction in the magnitude of the generated membrane potential
Hep G2
  Effect on cell viability (real-time): had a demonstrable effect on viability at 2 μg/ml
[3]
  chromatographic logD: > 5.3
